Source: patent US20050130982A1, “Oral therapeutic or preventative drugs for pollakiuria and urinary incontinence and oral sleep inducers, containing tropolone derivatives” (Nippon Kayaku Kabushiki Kaisha, priority 2002, published 2005)
Marks after values point to notes of the source that are not given here.

How the values were obtained:
[1] = Hygroscopic evaluation at 75% relative humidity; type: physicochemical; settings: for Weight change (mg) in 75% relative humidity: 50 mg sample; for Increase in weight (hygroscopicity, in words): 75% relative humidity for 26 days
Description: Fifty mg of the each test sample was weighed exactly and placed in a closed container in which the relative humidity was kept at 75% and the bottom chamber was filled with saturated brine.

[2] = target: T1, human serotonin 1A receptor (Homo sapiens, UniProt P08908); assay: Serotonin 1A antagonism activity: affinity to the human serotonin 1A receptor in transfected CHO cells; type: binding; settings: 10^−6 M test drug, 0.3 nM 8-OH-DPAT, CHO cells transfected with the human serotonin 1A receptor gene
T1 construct: expressed in transfected cells; host or cells: CHO cells
T1 sequence (P08908 1-422): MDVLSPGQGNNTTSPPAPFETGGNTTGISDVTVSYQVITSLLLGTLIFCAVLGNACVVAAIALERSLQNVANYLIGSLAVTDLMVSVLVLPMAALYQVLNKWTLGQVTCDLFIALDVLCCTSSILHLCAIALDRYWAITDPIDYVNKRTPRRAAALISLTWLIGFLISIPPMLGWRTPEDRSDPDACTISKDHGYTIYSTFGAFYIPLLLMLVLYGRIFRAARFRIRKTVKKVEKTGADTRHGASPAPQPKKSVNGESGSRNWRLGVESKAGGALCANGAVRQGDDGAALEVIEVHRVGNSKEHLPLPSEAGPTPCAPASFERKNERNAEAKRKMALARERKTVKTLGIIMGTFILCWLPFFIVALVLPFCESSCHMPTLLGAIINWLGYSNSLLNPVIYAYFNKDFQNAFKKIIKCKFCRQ
Method: The affinity of the test drug 1 to the human serotonin 1 A receptor was measured according to the method by Mulheron et al. (J. G. Mulheron et al., J. Biol. Chem., 269, 12954-12962 (1994)) by using the CHO cells transfected with the human serotonin 1A receptor gene.

[3] = tested on: sleep-inducing symptoms (drowsiness); assay: Observation of sleep-inducing symptoms in dogs after oral administration; type: in vivo, dog; settings: male Beagle dogs
Method: Male dogs (Beagles) were orally administered with capsules filled with the test drug 1 and the symptoms were observed. The dosages were 3 mg/kg, 10 mg/kg, 30 mg/kg and 100 mg/kg.

[4] = tested on: rhythmic bladder contraction; assay: Effect on the rhythmic bladder contraction of rats (inhibition of micturition reflex); type: in vivo, rat; settings: for Inhibition rate of the rhythmic contraction frequency of the bladder (%): anesthetized SD-IGS male rats, 120 minutes following administration; for Inhibitory activity on the frequency of the rhythmic bladder contraction (in words): rats
Method: The inhibitory effect on the micturition reflex was evaluated by the effect on the rhythmic bladder contraction according to the method of […] et al. (Rinshyoseiri 5, 540-547 (1975)). SD-IGS strain male rats were anesthetized by intraperitonial administration of urethane (1 g/kg). After exposing the bladder of the animal through an incision of the abdomen, a small incision was made on the top of the bladder from where a rubber balloon was inserted. The balloon was attached to a polyethylene tube connecting to a three way stopcock. The rest two ways of the stopcock were connected to a syringe for infusing water to the balloon and a transducer to measure the internal pressure of the bladder. The test animal was left for a while and then water was infused into the balloon until rhythmic contraction started. The change in the internal pressure of the bladder was recorded continuously by a polygraph. Drugs were dissolved in de-ionized water and administered through a catheter inserted in the duodenum. The effect of the drug was expressed as the inhibition ratio of the frequency of the rhythmic contraction of the bladder obtained by following formula. Inhibition rate (%)=100-{the frequency of the rhythmic contraction during 120 minutes following the administration (converted to the frequency per unit time)/the frequency of the rhythmic contraction 20 minutes immediately before the administration (converted to the frequency per unit time)×100}

[5] = Measurement of bioavailability by oral administration in rats; type: in vivo, rat; settings: for Bioavailability (%): 6.25 mg/kg oral vs intravenous, ratio of AUC
Method: The intravenous administration group and the oral administration group consisted of 3 rats each (6 week-old male SD-IGS strain (Japan Charles River Co.)).
Each test drug was dissolved in physiological saline or ultra-pure water and administered to the rats intravenously or orally at 6.25 mg/kg. The blood samples were collected periodically and the plasma were prepared by the routine procedures. After deproteinization, the concentration of each test drug was measured by the LC/ESI(+) SRM method (liquid chromatography/electrospray-ionization (+) selected reaction monitoring method) and the bioavailability was calculated as the ratio (percent) of AUC (area under the blood concentration-time curve) of the oral administration and AUC of the intra-venous administration.

[6] = oral capsule, group of more than 10 mg/kg
[7] = intra-duodenal administration of 6.25 mg/kg

| Structure (SMILES) | Weight change (mg) in 75% relative humidity ([1]; storage time 0 hours) [mg] | Weight change (mg) in 75% relative humidity ([1]; storage time 2 hours) [mg] | Weight change (mg) in 75% relative humidity ([1]; storage time 4 hours) [mg] | Weight change (mg) in 75% relative humidity ([1]; storage time 6 hours) [mg] | Weight change (mg) in 75% relative humidity ([1]; storage time 103 hours) [mg] | Weight change (mg) in 75% relative humidity ([1]; storage time 170 hours) [mg] | Weight change (mg) in 75% relative humidity ([1]; storage time 26 days) [mg] | Increase in weight (hygroscopicity, in words) [1] | Inhibition rate of the rhythmic contraction frequency of the bladder (%) ([4]; 6.25 mg/kg intra-duodenal) | Inhibitory activity on the frequency of the rhythmic bladder contraction (in words) [4, 7] | Bioavailability (%) ([5]; hydrochloride, 6.25 mg/kg) | Inhibition rate of the rhythmic contraction frequency of the bladder (%) ([4]; 12.5 mg/kg intra-duodenal) | other results |
| --- | --- | --- | --- | --- | --- | --- | --- | --- | --- | --- | --- | --- | --- |
| COc1cc(C(C)C)ccc(CN2CCN(c3ncccn3)CC2)c1=O.O=C(O)C(O)C(O)C(=O)O.O=C(O)C(O)C(O)C(=O)O [Test sample 1, 4-isopropyl-2-methoxy-7-[4-(2-pyrimidyl)piperazinomethyl]-2,4,6-cycloheptatrien-1-one 2 DL-tartrate] | 0.0 | 0.2 | 0.2 | 0.1 | 0.1 | 0.1 | 0.1 | No substantial increase |  |  |  |  |  |
| COc1cc(C(C)C)ccc(CN2CCN(c3ncccn3)CC2)c1=O.Cl [Test drug 1, 4-isopropyl-2-methoxy-7-[4-(2-pyrimidyl)piperazinomethyl]-2,4,6-cycloheptatrien-1-one 1 hydrochloride] |  |  |  |  |  |  |  |  | 48.89 +/− 5.43* % | marked inhibitory activity | 57 |  | Inhibition of the binding of 8-OH-DPAT to the human serotonin 1A receptor [2]: 77%; Symptoms after oral administration ([3]; oral capsule, 3 mg/kg): no abnormal symptom was recognized; Drowsiness [3, 6]: drowsiness was observed; Time to drowsiness after administration [3, 6]: 20 to 30 min; Duration of drowsiness ([3]; oral, 30 mg/kg): 142 min; Duration of drowsiness ([3]; oral, 100 mg/kg): 318 min; Abnormal behavior other than drowsiness ([3]; oral, 3-100 mg/kg): No abnormal behavior other than drowsiness was observed; Drug concentration in the plasma ([3]; oral, 3-100 mg/kg): increased dose-dependently; Inhibition rate of the rhythmic contraction frequency of the bladder (%) ([4]; 3.13 mg/kg intra-duodenal): 43.48%; Plasma concentration in rats administered orally ([5]; oral 6.25 mg/kg): ~10^−6 M |
| CC(C)c1ccc(CN2CCN(c3ccccc3)CC2)c(=O)c(OCc2ccccc2)c1.O=C(O)/C=C/C(=O)O [Control drug, 2-benzyloxy-4-isopropyl-7-[4-phenylpiperazinomethyl]-2,4,6-cycloheptatrien-1-one 1 fumarate, reference compound] |  |  |  |  |  |  |  |  |  |  |  | 4.81 +/− 4.09 (n = 6) % | Inhibitory activity on the frequency of the rhythmic bladder contraction (in words) ([4]; intra-duodenal, dose of 12.5 mg/kg): did not show significant activity; Bioavailability (%) [5]: 6% |
| CC(C)c1ccc(CN2CCN(c3ncccn3)CC2)c(=O)c(O)c1.Cl [Test drug 2, 2-hydroxy-4-isopropyl-7-[4-(2-pyrimidyl)piperazinomethyl]-2,4,6-cycloheptatrien-1-one 1 hydrochloride] |  |  |  |  |  |  |  |  | 26.84 +/− 5.33 (n = 4) % | marked inhibitory activity | 31 | 59.08 +/− 3.18* (n = 3) % |  |
| COc1cc(C(C)C)ccc(CN2CCN(c3ncccn3)CC2)c1=O.O=C(O)/C=C/C(=O)O [Test sample 2, 4-isopropyl-2-methoxy-7-[4-(2-pyrimidyl)piperazinomethyl]-2,4,6-cycloheptatrien-1-one 1 fumarate] | 0.0 | 0.3 | 0.4 | 0.1 | 0.1 | 0.2 | 0.2 | No substantial increase |  |  |  |  |  |
